SMILES strings stand for the structures. Like-named read-outs stand apart in the source and are kept apart here.

This experiment deals with T1, PAD4 enzyme (Homo sapiens, UniProt Q9UM07).
T1 construct: PAD4 enzyme was diluted to 30 nM in Assay Buffer
Briefly: In-vitro measurement for enzymatic PAD4 citrullination inhibition activity (ammonia release). Type of experiment: biochemical. The method, then:
Citrullination was detected via ammonia release based on published methodology (Nature Chemical Biology, 2015, 11: 189-191).
PAD4 enzyme was diluted to 30 nM in Assay Buffer (100 mM HEPES, 50 mM NaCl, 2 mM DTT, 0.6 mg/ml BSA, pH 8) and added to wells containing various concentrations of compound or DMSO vehicle (0.8% final) in a high-volume black 96-well plate (Greiner). Following a 60-min preincubation at 27° C., the reaction was initiated by the addition of substrate (3 mM BAEE in 100 mM HEPES, 50 mM NaCl, […] CaCl2, 2 mM DTT, pH 8). The reaction was stopped after 90 min by the addition of stop/detection buffer containing 50 mM EDTA, 2.6 mM o-phthalaldehyde and 2.6 mM DTT. Assays were incubated at 27° C. for 120 min before measuring fluorescence (λex 410/λem 476) on an Envision plate reader (PerkinElmer). After which IC50 values were calculated using GraphPad Prism 8.0.

Where [1] appears, read: read-out: IC50 of inhibition enzymatic activity of PAD4 (Colorimetric assays, Nature Chemical Biology, 2015, 11: 189-191).

T1 sequence (Q9UM07 whole entry): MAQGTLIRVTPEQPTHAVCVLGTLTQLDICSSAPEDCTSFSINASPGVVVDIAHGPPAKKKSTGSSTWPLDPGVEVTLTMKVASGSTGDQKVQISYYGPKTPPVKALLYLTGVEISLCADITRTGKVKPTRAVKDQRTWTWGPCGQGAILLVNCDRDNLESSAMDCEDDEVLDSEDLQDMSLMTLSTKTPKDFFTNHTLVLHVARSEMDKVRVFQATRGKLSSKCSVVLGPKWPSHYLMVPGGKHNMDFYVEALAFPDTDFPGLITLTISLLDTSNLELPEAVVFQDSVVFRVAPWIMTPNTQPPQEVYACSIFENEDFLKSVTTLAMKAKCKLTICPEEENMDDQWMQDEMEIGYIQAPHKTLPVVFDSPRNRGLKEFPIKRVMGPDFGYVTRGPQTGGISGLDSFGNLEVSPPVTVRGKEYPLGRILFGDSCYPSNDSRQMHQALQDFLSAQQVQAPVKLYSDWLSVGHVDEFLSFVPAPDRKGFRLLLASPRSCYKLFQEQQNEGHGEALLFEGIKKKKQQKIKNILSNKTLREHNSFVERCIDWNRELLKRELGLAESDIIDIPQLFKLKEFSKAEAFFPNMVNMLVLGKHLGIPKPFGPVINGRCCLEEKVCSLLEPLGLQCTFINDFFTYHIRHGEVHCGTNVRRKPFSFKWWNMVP

By IC50 is commonly meant the midpoint of a concentration-inhibition curve. For the molecule `COc1cc(C(=O)N2C[C@H](N)C[C@@H](F)C2)cc2nc(-c3cc4[se]c(-c5cccc(C)c5)nc4n3CC3CC3)n(C)c12` [HH-46], the IC50 under setting [1] is above 500 nM.

As for `COc1cc(C(=O)N2C[C@H](N)C[C@@H](F)C2)cc2nc(-c3cc4[se]ccc4n3CC3CC3)n(C)c12` [HH-47], the IC50 under setting [1] was 50 to 100 nM.

Consider `COc1cc(C(=O)N2C[C@H](N)CC[C@@H]2C)cc2nc(-c3cc4[se]ccc4n3CC3CC3)n(C)c12` [HH-48], for which the IC50 under setting [1] was in the range of 100 to 500 nM.

Take `COc1cc(C(=O)N2C[C@H](N)CC[C@@H]2C)cc2nc(-c3cc4[se]c(C)cc4n3CC3CC3)n(C)c12` [HH-49]: the IC50 under setting [1] is at most 50 nM.

Consider `COc1cc(C(=O)N2CCC[C@@H](N)C2)cc2nc(-c3cc4[se]c(C)cc4n3CC3CC3)n(C)c12` [HH-50], for which the concentration for half-maximal inhibition (IC50) under setting [1] was 50 to 100 nM.

For `COc1cc(C(=O)N2C[C@H](N)C[C@@H](F)C2)cc2nc(-c3cc4[se]c(C)cc4n3CC3CC3)n(C)c12` [HH-51], the IC50 under setting [1] is at most 50 nM.

On to `COc1cc(C(=O)N2C[C@H]3CC[C@@H]2[C@@H]3N)cc2nc(-c3cc4[se]c(C)cc4n3CC3CC3)n(C)c12` [HH-52], for which the IC50 (direct comparison of prior art and selenium containing compounds, read-out: IC50 for enzymatic PAD4 citrullination inhibition) was 25.1 nM; the IC50 under setting [1] was at most 50 nM.

Consider `COc1cc(C(=O)N2C[C@H](N)C[C@@H](F)C2)cc2nc(-c3cc4[se]c(C5CCCN5)cc4n3CC3CC3)n(C)c12` (stereo partly shown) [HH-53], for which, under setting [1], the IC50 was 50 to 100 nM.

Take `COc1cc(C(=O)N2C[C@H](N)CC[C@@H]2C)cc2nc(-c3cc4[se]c(C5CCCN5)cc4n3CC3CC3)n(C)c12` (stereo partly shown) [HH-54]: the IC50 under setting [1] lay in the range of 50 to 100 nM.

Take `COc1cc(C(=O)N2C[C@H]3CC[C@@H]2[C@@H]3N)cc2nc(-c3cc4[se]c(C5CCCN5)cc4n3CC3CC3)n(C)c12` (stereo partly shown) [HH-55]: the IC50 under setting [1] is 100 to 500 nM.

As for `COc1cc(C(=O)N2C[C@H]3CC[C@@H]2[C@@H]3N)cc2nc(-c3cc4[se]c(-c5ccc(C)cc5)cc4n3CC3CC3)n(C)c12` [HH-56], the IC50 under setting [1] was 100 to 500 nM.

With `COc1cc(C(=O)N2C[C@H]3CC[C@@H]2[C@@H]3N)cc2nc(-c3cc4[se]c(-c5cccc(C)c5)cc4n3CC3CC3)n(C)c12` [HH-57], the IC50 under setting [1] is 100 to 500 nM.

As for `COc1ccc(-c2cc3c(cc(-c4nc5cc(C(=O)N6C[C@H]7CC[C@@H]6[C@@H]7N)cc(OC)c5n4C)n3CC3CC3)[se]2)cc1` [HH-58], the half-maximal inhibitory concentration (IC50) under setting [1] lay in the range of 100 to 500 nM.

Turning to `COc1ccccc1-c1cc2c(cc(-c3nc4cc(C(=O)N5C[C@H](N)CC[C@@H]5C)cc(OC)c4n3C)n2CC2CC2)[se]1` [HH-59], the IC50 under setting [1] was at most 50 nM.

For `COc1ccccc1-c1cc2c(cc(-c3nc4cc(C(=O)N5C[C@H](N)C[C@@H](F)C5)cc(OC)c4n3C)n2CC2CC2)[se]1` [HH-60], the IC50 under setting [1] fell in the range of 100 to 500 nM.

Turning to `COc1cc(C(=O)N2C[C@H]3CC[C@@H]2[C@@H]3N)cc2nc(-c3cc4[se]c(-c5ccccn5)cc4n3CC3CC3)n(C)c12` [HH-61], the IC50 under setting [1] lay in the range of 100 to 500 nM.

With `COc1cc(C(=O)N2C[C@H](N)CC[C@@H]2C)cc2nc(-c3cc4[se]c(-c5ccccn5)cc4n3CC3CC3)n(C)c12` [HH-62], under setting [1], the IC50 lay within 50 to 100 nM.

As for `COc1cc(C(=O)N2C[C@H](N)C[C@@H](F)C2)cc2nc(-c3cc4[se]c(-c5ccccn5)cc4n3CC3CC3)n(C)c12` [HH-63], the IC50 under setting [1] is 100 to 500 nM.

In the case of `COc1cc(C(=O)N2C[C@H](N)C[C@@H](F)C2)cc2nc(-c3cc4cc[se]c4n3CC3CC3)n(C)c12` [HH-64], the IC50 under setting [1] lay in the range of 50 to 100 nM.

As to `COc1cc(C(=O)N2C[C@H](N)CC[C@@H]2C)cc2nc(-c3cc4cc[se]c4n3CC3CC3)n(C)c12` [HH-65], the IC50 under setting [1] fell in the range of 50 to 100 nM.

As to `COc1cc(C(=O)N[C@@H]2CC[C@H](C)NC2)cc2nc(-c3cc4cc[se]c4n3CC3CC3)n(C)c12` [HH-66], the IC50 under setting [1] lay within 100 to 500 nM.

With `COc1cc(C(=O)N2C[C@H](N)CC[C@@H]2C)cn2nc(-c3cc4[se]c(C)nc4n3CC3CC3)c(C)c12` [HH-67], the IC50 under setting [1] lay within 100 to 500 nM.

As for `COc1cc(C(=O)N2C[C@H]3CC[C@@H]2[C@@H]3N)cn2nc(-c3cc4[se]c(C)nc4n3CC3CC3)c(C)c12` [HH-68], the IC50 under setting [1] was in the range of 50 to 100 nM.

In the case of `COc1cc(C(=O)N2C[C@H](N)C[C@@H](F)C2)cn2nc(-c3cc4[se]c(C)nc4n3CC3CC3)c(C)c12` [HH-69], the IC50 under setting [1] lay within 50 to 100 nM.

Regarding `Cc1c(-c2cc3[se]c(-c4ccccn4)nc3n2CC2CC2)nn2cc(C(=O)N3C[C@H](N)CC[C@@H]3C)ccc12` [HH-70], the half-inhibitory concentration (IC50) under setting [1] lay in the range of 100 to 500 nM.

Consider `Cc1c(-c2cc3[se]c(-c4ccccn4)nc3n2CC2CC2)nn2cc(C(=O)N3C[C@H](N)C[C@@H](F)C3)ccc12` [HH-71], for which the concentration for half-maximal inhibition (IC50) under setting [1] lay within 100 to 500 nM.

`Cc1c(-c2cc3[se]c(-c4ccccn4)nc3n2CC2CC2)nn2cc(C(=O)N3C[C@H]4CC[C@@H]3[C@@H]4N)ccc12` [HH-72]: the IC50 under setting [1] is 100 to 500 nM.

Take `Cc1nc2c(cc(-c3nc4cc(C(=O)N5C[C@H](N)C[C@@H](F)C5)ccn4c3C)n2CC2CC2)[se]1` [HH-73]: the IC50 under setting [1] lay in the range of 50 to 100 nM.

As for `Cc1nc2c(cc(-c3nc4cc(C(=O)N5C[C@H]6CC[C@@H]5[C@@H]6N)ccn4c3C)n2CC2CC2)[se]1` [HH-74], the IC50 under setting [1] lay in the range of 50 to 100 nM.

For `Cc1nc2c(cc(-c3nc4cc(C(=O)N5C[C@H](N)CC[C@@H]5C)ccn4c3C)n2CC2CC2)[se]1` [HH-75], the IC50 under setting [1] was at most 50 nM.
